The CheMixHub viscosity set
Several values for one entry are separate records, joined by “and”; a condition that tells them apart may be missing. Equal values may be shown once. ± gives the uncertainty stated by the source.

Test: xn = mol fraction of the nth substance listed

OCCNCCO + O
viscosity (293.15 K, 101 kPa, x1 = 0.15): 12.5 ± 0.25 mPa·s
viscosity (293.15 K, 101 kPa, x1 = 0.34): 91.2 ± 2.2 mPa·s
viscosity (293.15 K, 101.3 kPa, x1 = 0.02): 1.499 mPa·s
viscosity (293.15 K, 101.3 kPa, x1 = 0.04): 2.204 mPa·s
viscosity (293.15 K, 101.3 kPa, x1 = 0.1): 6.515 ± 1.7 mPa·s and 12.37 ± 1.8 mPa·s
viscosity (293.15 K, 101.3 kPa, x1 = 0.2): 25.81 ± 2.2 mPa·s
viscosity (293.15 K, 101.3 kPa, x1 = 0.3): 53.68 ± 4.6 mPa·s
viscosity (293.15 K, 101.3 kPa, x1 = 0.4): 143.3 ± 18 mPa·s
viscosity (293.15 K, 101.3 kPa, x1 = 0.6): 353.7 ± 71 mPa·s
viscosity (293.15 K, 101.33 kPa, x1 = 0.019): 1.427 ± 0.019 mPa·s
viscosity (293.15 K, 101.33 kPa, x1 = 0.041): 2.171 ± 0.028 mPa·s
viscosity (298.15 K, 101 kPa, x2 = 0.9): 5.29 ± 0.05 mPa·s
viscosity (298.15 K, 101 kPa, x2 = 0.9316): 3.1 ± 0.03 mPa·s
viscosity (298.15 K, 101.3 kPa, x1 = 0.02): 1.259 mPa·s
viscosity (298.15 K, 101.3 kPa, x1 = 0.04): 1.875 mPa·s
viscosity (298.15 K, 101.3 kPa, x1 = 0.07): 3.04 mPa·s
viscosity (298.15 K, 101.3 kPa, x1 = 0.1): 5.221 ± 1.7 mPa·s and 9.782 ± 1.7 mPa·s
viscosity (298.15 K, 101.3 kPa, x1 = 0.2): 19.24 ± 1.8 mPa·s
viscosity (298.15 K, 101.3 kPa, x1 = 0.3): 39.15 ± 2.3 mPa·s
viscosity (298.15 K, 101.3 kPa, x1 = 0.4): 97.87 ± 7.9 mPa·s
viscosity (298.15 K, 101.3 kPa, x1 = 0.6): 245.4 ± 41 mPa·s
viscosity (298.15 K, 101.33 kPa, x1 = 0.0093): 1.051 ± 0.013 mPa·s
viscosity (298.15 K, 101.33 kPa, x1 = 0.0188): 1.255 ± 0.015 mPa·s
viscosity (298.15 K, 101.33 kPa, x1 = 0.0414): 1.875 ± 0.022 mPa·s
viscosity (298.15 K, 101.33 kPa, x1 = 0.069): 3.24 ± 0.036 mPa·s
viscosity (298.15 K, 101.33 kPa, x1 = 0.1028): 5.486 ± 0.059 mPa·s
viscosity (298.15 K, 101.33 kPa, x1 = 0.1469): 10.34 ± 0.1 mPa·s
viscosity (298.15 K, 101.33 kPa, x1 = 0.2054): 21.44 ± 0.19 mPa·s
viscosity (298.15 K, 101.33 kPa, x1 = 0.2884): 48.78 ± 0.43 mPa·s
viscosity (298.15 K, 101.33 kPa, x1 = 0.4026): 112.5 ± 3.1 mPa·s
viscosity (298.15 K, 101.33 kPa, x1 = 0.6059): 262.4 ± 15 mPa·s
viscosity (298.15 K, 101.33 kPa, x1 = 0.8012): 420.3 ± 30 mPa·s
viscosity (298.15 K, 101.33 kPa, x1 = 0.9438): 524.1 ± 42 mPa·s
viscosity (303.15 K, 101 kPa, x1 = 0.0501): 1.922 ± 0.11 mPa·s
viscosity (303.15 K, 101 kPa, x1 = 0.1004): 4.138 ± 0.15 mPa·s
viscosity (303.15 K, 101 kPa, x1 = 0.1509): 8.25 ± 0.23 mPa·s
viscosity (303.15 K, 101 kPa, x1 = 0.2006): 14.47 ± 0.38 mPa·s
viscosity (303.15 K, 101 kPa, x1 = 0.3008): 36.44 ± 0.89 mPa·s
viscosity (303.15 K, 101 kPa, x1 = 0.4014): 72.38 ± 1.6 mPa·s
viscosity (303.15 K, 101 kPa, x1 = 0.5011): 118.4 ± 2.9 mPa·s
viscosity (303.15 K, 101 kPa, x1 = 0.5957): 166.7 ± 4.5 mPa·s
viscosity (303.15 K, 101 kPa, x1 = 0.6968): 224.8 ± 6.8 mPa·s
viscosity (303.15 K, 101 kPa, x1 = 0.8034): 279.7 ± 9.1 mPa·s
viscosity (303.15 K, 101 kPa, x1 = 0.9012): 320.5 ± 11 mPa·s
viscosity (303.15 K, 101.3 kPa, x1 = 0.02): 1.106 mPa·s
viscosity (303.15 K, 101.3 kPa, x1 = 0.07): 2.74 mPa·s
viscosity (303.15 K, 101.3 kPa, x1 = 0.1): 4.42 ± 1.7 mPa·s and 8.008 ± 1.7 mPa·s
viscosity (303.15 K, 101.3 kPa, x1 = 0.2): 15.32 ± 1.8 mPa·s
viscosity (303.15 K, 101.3 kPa, x1 = 0.3): 31.19 ± 2.1 mPa·s
viscosity (303.15 K, 101.3 kPa, x1 = 0.4): 73.47 ± 4 mPa·s
viscosity (303.15 K, 101.3 kPa, x1 = 0.6): 162.7 ± 20 mPa·s
viscosity (303.15 K, 101.33 kPa, x1 = 0.068): 2.542 ± 0.032 mPa·s
viscosity (308.15 K, 101 kPa, x1 = 0.04): 1.455 ± 0.0086 mPa·s
viscosity (308.15 K, 101 kPa, x1 = 0.0501): 1.679 ± 0.11 mPa·s
viscosity (308.15 K, 101 kPa, x1 = 0.054): 1.795 ± 0.0098 mPa·s
viscosity (308.15 K, 101 kPa, x1 = 0.1004): 3.502 ± 0.13 mPa·s
viscosity (308.15 K, 101 kPa, x1 = 0.1509): 6.653 ± 0.19 mPa·s
viscosity (308.15 K, 101 kPa, x1 = 0.2006): 11.56 ± 0.29 mPa·s
viscosity (308.15 K, 101 kPa, x1 = 0.3008): 27.8 ± 0.63 mPa·s
viscosity (308.15 K, 101 kPa, x1 = 0.4014): 53.45 ± 1.1 mPa·s
viscosity (308.15 K, 101 kPa, x1 = 0.5011): 85.56 ± 1.9 mPa·s
viscosity (308.15 K, 101 kPa, x1 = 0.5957): 119 ± 2.8 mPa·s
viscosity (308.15 K, 101 kPa, x1 = 0.6968): 158.6 ± 4.2 mPa·s
viscosity (308.15 K, 101 kPa, x1 = 0.8034): 197.1 ± 5.6 mPa·s
viscosity (313.15 K, 101 kPa, x1 = 0.054): 1.585 ± 0.009 mPa·s
viscosity (313.15 K, 101.3 kPa, x1 = 0.02): 0.896 mPa·s
viscosity (313.15 K, 101.3 kPa, x1 = 0.2): 10.02 ± 1.7 mPa·s
viscosity (313.15 K, 101.3 kPa, x1 = 0.3): 17.89 ± 1.8 mPa·s
viscosity (313.15 K, 101.3 kPa, x1 = 0.4): 41.02 ± 2.4 mPa·s
viscosity (313.15 K, 101.3 kPa, x1 = 0.6): 88.54 ± 6.1 mPa·s
viscosity (313.15 K, 101.33 kPa, x1 = 0.0093): 0.755 ± 0.01 mPa·s
viscosity (313.15 K, 101.33 kPa, x1 = 0.0188): 0.878 ± 0.011 mPa·s
viscosity (313.15 K, 101.33 kPa, x1 = 0.019): 0.898 ± 0.012 mPa·s
viscosity (313.15 K, 101.33 kPa, x1 = 0.041): 1.28 ± 0.016 mPa·s
viscosity (313.15 K, 101.33 kPa, x1 = 0.0414): 1.25 ± 0.015 mPa·s
viscosity (313.15 K, 101.33 kPa, x1 = 0.068): 1.93 ± 0.024 mPa·s
viscosity (313.15 K, 101.33 kPa, x1 = 0.069): 1.884 ± 0.022 mPa·s
viscosity (313.15 K, 101.33 kPa, x1 = 0.1469): 5.522 ± 0.06 mPa·s
viscosity (313.15 K, 101.33 kPa, x1 = 0.2054): 10.42 ± 0.1 mPa·s
viscosity (313.15 K, 101.33 kPa, x1 = 0.2884): 21.56 ± 0.19 mPa·s
viscosity (313.15 K, 101.33 kPa, x1 = 0.4026): 44.04 ± 0.38 mPa·s
viscosity (313.15 K, 101.33 kPa, x1 = 0.6059): 95.06 ± 2.1 mPa·s
viscosity (313.15 K, 101.33 kPa, x1 = 0.8012): 143.9 ± 5.2 mPa·s
viscosity (313.15 K, 101.33 kPa, x1 = 0.9438): 175.3 ± 7.5 mPa·s
viscosity (323.15 K, 101 kPa, x1 = 0.041): 1.08 ± 0.01 mPa·s
viscosity (323.15 K, 101 kPa, x1 = 0.15): 4.27 ± 0.05 mPa·s
viscosity (323.15 K, 101 kPa, x1 = 0.34): 20.7 ± 0.32 mPa·s
viscosity (323.15 K, 101.3 kPa, x1 = 0.02): 0.747 mPa·s
viscosity (323.15 K, 101.3 kPa, x1 = 0.04): 1.063 mPa·s
viscosity (323.15 K, 101.3 kPa, x1 = 0.07): 1.604 mPa·s
viscosity (323.15 K, 101.3 kPa, x1 = 0.2): 6.501 ± 1.7 mPa·s
viscosity (323.15 K, 101.3 kPa, x1 = 0.3): 12.21 ± 1.7 mPa·s
viscosity (323.15 K, 101.3 kPa, x1 = 0.4): 24.08 ± 1.9 mPa·s
viscosity (323.15 K, 101.3 kPa, x1 = 0.6): 52.49 ± 2.5 mPa·s
viscosity (323.15 K, 101.33 kPa, x1 = 0.068): 1.469 ± 0.019 mPa·s
